Source: publication PMC9367672, “In vitro differences in toddalolactone metabolism in various species and its effect on cytochrome P450 expression” (Pharmaceutical Biology, 2022)

What was measured:
[1] = Metabolic stability assessment in human liver microsomes (CYP and UGT incubation systems); assay type: in vitro ADME; details: pH 7.4, HLMs, toddalolactone 20 μM, 0-90 min
Experimental: (§1) The CYP reaction system (200 μL) consisted of 0.1 M potassium phosphate buffer (pH 7.4), an NADPH-generating system (1 mM NADPH, 10 mM G-6-P, 1 unit/mL G-6-PD, 4 mM MgCl2), and liver microsomes or recombinant human microsomes (supersomes). Each of the in vitro enzymatic assays using liver microsomes was linear with respect to incubation time and amount of protein. After a pre-incubation at 37 °C for 3 min, the reactions were initiated by adding NADP^+. After incubating for 60 min, the reactions were quenched by adding 200 μL of ice-cold acetonitrile. Samples were centrifuged at 18,000 g for 15 min at 4 °C and 10 μL of supernatant was analyzed using an HPLC system. […]
(§2) In the UGT reaction system, liver microsomes were incubated in 200 μL of the reaction system containing 4 mM UDPGA, 5 mM MgCl2, 20 µg/mL alamethicin, and 50 mM Tris-HCl buffer (pH 7.4). […] After centrifugation at 18,000 g for 15 min, 10 μL of the supernatant was analyzed by HPLC.
(§3) Toddalolactone (20 μM) was incubated with different liver microsomes, including HLMs, DLMs, PLMs, MLMs, RAMs, RLMs or MIMs in oxidative metabolism and glucuronidation reaction systems. […] The mixtures were centrifuged at 18,000 g for 15 min at 4 °C and then 10 μL of the supernatant was analyzed by HPLC. […]
(§4) The peak areas of toddalolactone and its metabolites were detected using a HPLC system (Shimadzu, Kyoto, Japan). […]

[2] = Metabolic stability assessment in dog liver microsomes; assay type: in vitro ADME; details: beagle, pH 7.4, DLMs, CYP incubation system, toddalolactone 20 μM, 0-90 min, read-out: half-life value (T1/2)
Experimental: as §1, §2, §3, §4

DLMs = experiment: Prediction of in vivo hepatic clearance in dogs from DLM kinetics; assay type: in vitro ADME, dog
Experimental: The in vivo hepatic clearances in oxidative metabolism and glucuronidation of toddalolactone were calculated using Equations (4)–(6) (Li et al. [2008]): (4) CLint in vitro=∑i=1nVmax(Mi)/Km(Mi) (5) CLint in vivo=CLint in vitro⋅SF (6) CLH=QH⋅fu⋅CLint in vivo/QH+fu⋅CLint in vivo where SF is the milligrams of microsomal protein per gram of liver multiplied by the grams of liver weight; CLH is hepatic clearance; fu is the unbound fraction in the blood (the value of fu was set to 1 due to the absence of available data for toddalolactone); QH is the blood flow in the liver; and Mi is the metabolite of toddalolacone. The physiological parameters to calculate intrinsic clearance were as follows. The liver weight of dogs, rats and humans were 32, 40 and 25.7 g/kg body weight, respectively; the content of microsomal protein was 77.9, 44.8 and 48.8 mg/g of liver; and the blood flow in the liver was 30.9, 55.2 and 20.7 mL/(min ⋅ kg), respectively (Naritomi et al. [2001]).

CYP1A1 = molecular target: T1, CYP1A1 (Homo sapiens, UniProt P04798); experiment: Reaction phenotyping with recombinant human CYP1A1; assay type: in vitro ADME; parameters: purchased Corning Life Sciences (Corning, MA); details: CYP1A1 15 nM, 37 °C, 60 min; P4 main metabolite
T1 sequence (P04798 1-512): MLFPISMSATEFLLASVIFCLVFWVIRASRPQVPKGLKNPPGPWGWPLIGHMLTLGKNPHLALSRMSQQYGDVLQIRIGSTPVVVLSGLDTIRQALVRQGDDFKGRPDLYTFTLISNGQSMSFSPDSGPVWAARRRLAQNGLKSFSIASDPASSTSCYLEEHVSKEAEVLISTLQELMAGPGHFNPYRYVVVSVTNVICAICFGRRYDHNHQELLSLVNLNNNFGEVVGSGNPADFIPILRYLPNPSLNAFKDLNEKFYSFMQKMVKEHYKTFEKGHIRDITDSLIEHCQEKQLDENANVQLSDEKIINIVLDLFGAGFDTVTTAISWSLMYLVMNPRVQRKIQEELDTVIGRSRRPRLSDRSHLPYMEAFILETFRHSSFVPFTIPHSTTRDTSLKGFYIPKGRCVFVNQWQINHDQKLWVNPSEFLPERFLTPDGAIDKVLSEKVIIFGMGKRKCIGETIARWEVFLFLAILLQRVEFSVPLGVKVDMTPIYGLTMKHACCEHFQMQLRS
Experimental: The CYP reaction system (200 μL) consisted of 0.1 M potassium phosphate buffer (pH 7.4), an NADPH-generating system (1 mM NADPH, 10 mM G-6-P, 1 unit/mL G-6-PD, 4 mM MgCl2), and liver microsomes or recombinant human microsomes (supersomes). Each of the in vitro enzymatic assays using liver microsomes was linear with respect to incubation time and amount of protein. After a pre-incubation at 37 °C for 3 min, the reactions were initiated by adding NADP^+. After incubating for 60 min, the reactions were quenched by adding 200 μL of ice-cold acetonitrile. Samples were centrifuged at 18,000 g for 15 min at 4 °C and 10 μL of supernatant was analyzed using an HPLC system. NADPH or CYP enzyme sources were not used in the control group to ensure that the metabolic reactions were CYP- and NADPH-dependent. All incubation assays were completed in triplicate. The data are presented as mean ± standard deviation (SD).
Thirteen cDNA-expressed human CYP isoforms (CYP1A1, CYP1A2, CYP2A6, CYP2B6, CYP2C8, CYP3A4, CYP2C19, CYP3A5, CYP1B1, CYP2C9, CYP2D6, CYP2E1 and CYP4F2) were used to identify the isoform(s) involved in the biotransformation of toddalolactone. Toddalolactone (10 μM) was incubated with each recombinant CYP (15 nM) for 60 min at 37 °C and metabolites were identified by HPLC.

COc1cc2oc(=O)ccc2c(OC)c1C[C@@H](O)C(C)(C)O [toddalolactone]
half-life at 20 μM ([1]; CYP incubation system, read-out: half-life value (T1/2)): 11.2 h | half-life at 20 μM ([1]; UGT incubation system, read-out: T1/2 value): 1.38 h | half-life at 20 μM [2]: 8.23 ± 0.7 h | CLH versus hepatic blood flow (QH) (DLMs; DLMs): 5.41% | clearance class according to predicted CLH (DLMs; dogs): low-clearance (low-clearance drugs (<30% liver blood flow)) | in vivo hepatic clearance (CLH) (DLMs; dogs, predicted from kinetic parameters of P1–P6, fu set to 1): 0.47 mL/(min/kg body weight) | catalysis of toddalolactone metabolism by rhCYP isoform (CYP1A1): predominantly catalyzed
